Source: patent US7608716B2, “Pyrazolonaphthyridine derivative” (Aska Pharmaceutical Co., Ltd., priority 2002, dated 2009)

How the values were obtained:
[1] = system: TNF-α production; assay: Inhibition of TNF-α production in galactosamine- and LPS-stimulation; type: in vivo; conditions: Mus musculus; C3H/HeN mice, oral, 1 hour before galactosamine/LPS i.v.; serum TNF-α by ELISA 1 hour later; read-out: Inhibition of TNF-α production ED50: mg/kg orally
Experimental: A suspension of each test compound in 0.5% CMC-Na solution was administered orally to C3H/HeN mice at a dose of 0.10 to 10 mg/kg. One hour later, the animals received intravenously galactosamine at a dose of 800 mg/kg and LPS at a dose 5 μg/kg to raise the induction of TNF-α production. One hour later after the galactosamine- and LPS-administration, amounts of TNF-α in serum samples were measured by ELISA, and ED50 was obtained. Roflumilast and SB207499 were used for the reference compounds in this assay.

[2] = system: lung eosinophil infiltration; assay: Inhibition of lung eosinophil infiltration (OVA-sensitized, BALF); type: in vivo, Hartley guinea-pigs; conditions: Cavia porcellus, guinea-pigs, oral, 1 hour before OVA inhalation, BALF eosinophils at 24 hours, read-out: Inhibition of Lung Eosinophil Infiltration ED50: mg/kg orally
Experimental: Hartley guinea-pigs were sensitized by inhaling twice 1% ovalbumin (OVA) in a physiological saline for 10 minutes with a nebulizer (Atom Medical Corporation, Japan) at an interval of 1 week. The animals were orally given a suspension of test compounds at a dose of 0.03 to 3 mg/2 mL/kg one week after the final sensitization. One hour later, the animals were exposed to antigens by inhalation of 2% OVA in a physiological saline for 5 minutes with a nebulizer. Thirty minutes before the antigen challenge, the animals were intraperitoneally pretreated with pyrilamine at a dose of 10 mg/kg to avoid fatality due to anaphylactic shock. Bronchoalveolar lavage fluid (BALF) samples were collected 24 hours after the exposure by inhalation of antigens, and eosinophils were counted.

[3] = system: lung neutrophil infiltration; assay: Inhibition of lung neutrophil infiltration (LPS inhalation, BALF); type: in vivo, Hartley guinea-pigs; conditions: Cavia porcellus, guinea-pigs, oral, 1 hour before LPS inhalation, BALF neutrophils at 24 hours, read-out: Inhibition of Lung Neutrophil Infiltration ED50: mg/kg orally
Experimental: Hartley guinea-pigs were orally received a suspension of test compounds at a dose of 0.03 to 3 mg/2 mL/kg. One hour later, the animals were received 0.1 mg/mL lipopolylsaccharide (LPS) in a physiological saline via an inhalational route with a nebulizer for 30 minutes. Twenty-four hours after the LPS inhalation, BALF samples were collected, and neutrophils were counted.

[4] = system: ICR mice; assay: Toxicology study (1-week administration to mice); type: in vivo; conditions: oral, 100 or 300 mg/10 ml/kg, one week
Experimental: The Compound of the present invention (Example No. 9) was administered orally to ICR mice (5 animals per group) as a test compound. […] The test compound was suspended in 0.5% CMC-Na solution and given orally to the animal at a dose of 100 or 300 mg/10 ml/kg in a forced manner.

Question: `O=c1c2c(Cc3ccccc3)n[nH]c2c2cccnc2n1-c1ccccc1` [Example No. 9, 3-benzyl-5-phenyl-1H-pyrazolo[4,3-c][1,8]naphthyridin-4 (5H)-one] was tested. Which ED50 [1] did it give?
Answer: 0.22 mg/kg

Question: What about the ED50 [2] of the same molecule?
Answer: < 0.03 mg/kg

Question: What about the ED50 [3] of the same molecule?
Answer: 0.12 mg/kg

Question: What about the “Abnormality in other parameters” value [4] of the same molecule?
Answer: no abnormality was observed

Question: And the Body weight gain [4]?
Answer: No reduction of body weight gains was observed

Question: And the Mortality [4]?
Answer: None of the animals were died

Question: How did the ED50 [1] turn out when `O=c1c2c(Cc3ccc(F)cc3)n[nH]c2c2cccnc2n1-c1ccccc1` [Example No. 33, 3-(4-fluorobenzyl)-5-phenyl-1H-pyrazolo[4,3-c][1,8]naphthyridin-4 (5H)-one] was run?
Answer: 0.1 mg/kg

Question: What about the ED50 [2] of the same molecule?
Answer: 0.03 mg/kg

Question: What about the ED50 [3] of the same molecule?
Answer: 0.09 mg/kg
